Test results from patent US7271239B2, “D-isomers of antimicrobial peptide” (The Research Foundation of State University of New York, priority 2004, dated 2007).
Values after ≈ are worked out from the molar mass of the structure shown. Values joined by “and” are separate entries in the source; they are usually repeats but may differ in a detail not shown here. Equal values may be shown once. Read-outs that look alike come from different tables or passages of the source. Where a SMILES comes first, the peptide text is derived from it. Where no end group is shown, it is not given here. [ ]: non-standard residue; d: D form.

Assays:
S. mutans = assay: microbe, parasite or virus in culture
Excerpt: (§1) The bacteria used in this study included Streptococcus mutans ATCC10449, Streptococcus mutans AU 159, Streptococcus mutans GS-5, Streptococcus mutans GS-5 mutant (^gtf BCD), Streptococcus gordonii Challis, Porphyromonas gingivalis W50, Porphyromonas gingivalis 381, A. actinomycetemcomitans NCTC 9710, Pseudomonas aeruginosa ATCC 17648, and Escherichia coli HB101. One quarter strength (25%) of brain heart infusion broth (BHI, DIFCO Laboratories, Detroit, Mich.) was used for the growth of S. mutans, S. gordonii, A. actinomycetemcomitans, Ps. aeruginosa, and E. coli. For growth of P. gingivalis, tryptic soy broth-yeast extract medium (TSBY, DIFCO Laboratories, Detroit, Mich.) supplemented with cysteine hydrochloride (0.05%), menadione (0.02 μg/ml), hemin (5 μg/ml), and potassium nitrate (0.02%) was used. All bacteria were cultured at 37° C.; Ps. aeruginosa and E. coli were grown aerobically, and the other bacteria, anaerobically. To prepare bacterial cell suspension for antibacterial activity assays, each overnight culture was harvested by centrifuge (3783 g, 10 min), washed once with 10 mM sodium phosphate-buffered saline (PBS, pH 7.2), resuspended in PBS and adjusted to a concentration of 1×10^6 cells/mL.
(§2) MICs of the peptides were determined by broth microdilution method as previously described (5). Briefly, two-fold serial dilutions of each peptide were prepared with 25% BHI medium at a volume of 200 μl per well in 96-well flat-bottom microtiter plates (Costar, Cambridge, Mass.). The final concentration of the peptides ranged from 0.78 to 100 μM, and chlorhexidine (CHX), used as a positive control, from 20 to 0.16 μM (10 to 0.078 μg/mL). The microtiter plate was inoculated with bacterial cell suspension with final concentration of 5×10^6 CFU/mL for P. gingivalis and 5×10^5 CFU/mL for the other bacterial species. After incubation at 37° C. for 48 h, the absorbance was measured at 595 nm by using a microplate reader (Model 3550, Bio-Rad, Japan) to assess the cell growth. […] The MIC value represents the median of at least three independent experiments. The minimal bactericidal concentration (MBC) was determined as follows. Aliquot (100 μl) of cell suspension was taken from two wells above MIC, centrifuged, and washed three times with PBS. Then each cell suspension was plated on TSBY agar plate, and bacterial cells were enumerated after incubation at 37° C. for 48 h. The MBC was defined as the lowest concentration of the peptide at which more than 99.9% of cells were killed compared to non-treated control.

S. gordonii Challis = assay: microbe, parasite or virus in culture; type: cell-based, Streptococcus gordonii; conditions: for MBC / MIC: Streptococcus gordonii
Excerpt: as §1, §2

[1] = tested on: A. actinomycetemcomitans NCTC 9710; assay: microbe, parasite or virus in culture; type: cell-based; conditions: for MBC / MIC: Aggregatibacter actinomycetemcomitans, NCTC9710
Excerpt: as §1, §2

E. coli HB101 = assay: microbe, parasite or virus in culture; type: cell-based, Escherichia coli; conditions: for MBC / MIC: Escherichia coli, HB101
Excerpt: as §1, §2

S. mutans GS-5 biofilm = type: cell-based, Streptococcus mutans
Description: FIG. 11. Effect of peptides on the biofilm formation of S. mutans. The bacterial cells (5×10^5 cfu ml^−1) were inoculated in 96-well microtiter plate containing 25% BHIS medium with different concentration of each agent. Culture without agent was used as no treatment control. After incubation at 37° C. for 24 h, absorbance at 595 nm was recorded to assess the cell growth. Biofilm assay was performed by discarding the supernatants, washing with PBS, fixing with methanol, and staining with CV. The absorbance at 570 nm was recorded to assess the amount of biofilm. The activity was expressed as % of control. Data represents mean and SD of two independent tests with duplicates for each. Empty bar: growth, solid bar: biofilm.
The effect of the peptides on S. mutans in biofilm formation was examined by the microdilution method. This method is similar to the MIC assay for planktonic cells. Two-fold serial dilutions of each peptide were prepared in wells of polystyrene microtiter plates (Microtest tissue culture plate, 96 well, Falcon, Becton Dickinson and Company, N.J.) containing 25% BHI medium supplemented with 1% sucrose (BHIS) at a volume of 200 μl per well. The final concentration of the peptide ranged from 0.78 to 100 μM for each peptide. Chlorhexidine (CHX, 0.078 to 10 μg/mL) was used as the positive control, the medium without drug as the non-treated control, and the medium alone as the blank control. The cells suspension of S. mutans GS-5 was prepared as describe in MIC assay and 20 μl aliquot (final concentration of cells 5×10^5 CFU/mL) was inoculated to the wells of polystyrene microtiter plates. After incubation at 37° C. for 20 h, the culture supernatants from each well were decanted and planktonic cells were removed by washing with PBS, pH 7.2. The biofilm was fixed with methanol for 15 min and then air dried at room temperature. The biofilm was then stained with 0.1% (wt/vol) crystal violet (Sigma) for 5 min. and rinsed thoroughly with water until the control wells appeared colorless. Biofilm formation was quantified by the addition of 200 μl of 95% ethanol to each crystal violet-stained well. The plate was rocked at room temperature for 30 min and the absorbance at 595 nm (A595 nm) was determined with a microplate reader (BioRad Model 3550 Microplate Reader). Percentage of inhibition was calculated with the equation: (1−A595 nm of the test/A595nm of non-treated control)×100.

[2] = tested on: S. mutans GS-5 1-day biofilm; type: cell-based, Streptococcus mutans
Description: FIG. 12. Effect of peptides on 1-day biofilm of S. mutans. One-day mature biofilm was prepared as described above. BHI medium supplemented with 1% sucrose (BHIS) with peptides, prepared in another microtiter plate, was then transferred to the biofilm plate. After further incubation at 37° C. for 24 h, the biofilm was fixed, stained, and quantified as describe above. Data represents mean and SD of two independent tests performed in duplicated. Empty bar: growth, solid bar: biofilm.
To examine the effects of the peptides on 1-day mature biofilm, S. mutans GS-5 was inoculated into the wells of another polystyrene microtiter plate containing BHIS at a volume of 200 μl per well. After incubation at 37° C. for 24 h, the culture supernatants from each well were decanted and planktonic cells were removed by washing with PBS. BHIS containing 0.78 to 100 μM peptides, prepared in another microtiter plate, was then transferred to the 1-day biofilm plate, and further incubated at 37° C. for one day. The biofilm was fixed, stained, and quantified as describe above.

[3] = lowest concentration with 50% or more inhibition of biofilm formation
[4] = lowest concentration with 50% or more eradication of 1-day biofilm
[5] = median of four strains (GS-5, GS-5 gtfBCD, AU 159, ATCC10449), 25% BHI, 48 h

Compound | MBIC50 (S. mutans GS-5 biofilm) | MBIC50 (S. mutans GS-5 biofilm; [3]) | MBEC50 (μg/ml) [2] | MBEC50 (μM) [2, 4] | MBC (μM) (S. mutans; median of four strains) | MIC (S. mutans; [5]) | MBC (μM) (S. gordonii Challis) | MIC (μM) (S. gordonii Challis) | MBC (μM) ([1]; NCTC 9710) | MBC (μg/ml) ([1]; NCTC 9710) | MIC (μM) ([1]; NCTC 9710) | MIC (μg/ml) ([1]; NCTC 9710) | MBC (μM) (E. coli HB101) | MIC (μM) (E. coli HB101) | MBIC50 (S. mutans GS-5 biofilm; GS-5 biofilm, 24 h) | MBEC50 (μM) ([2]; GS-5 1-day biofilm, 24 h) | MBC (μg/ml) (S. gordonii Challis) | MIC (μg/ml) (S. gordonii Challis) | further results
[H]/N=C(\N/C(=N/[H])NCCCCCCNC(=N)NC(=N)Nc1ccc(Cl)cc1)Nc1ccc(Cl)cc1 [Chlorhexidine, Chlorhexidine digluconate] | 0.625 µg/mL | 1.25 µM | >10 µg/mL | >20 µM |  |  |  |  |  |  |  |  |  |  |  |  |  |  | MBC (S. mutans; Streptococcus mutans): 2.5 µM and 1.2 µg/mL; MIC (S. mutans; Streptococcus mutans): 1.2 µg/mL; MIC (S. mutans; Streptococcus mutans, ATCC10449, 48 h): 2.5 µM; MBC (S. gordonii Challis; read-out: MBC): 4 µM; MBC (S. gordonii Challis; read-out: MBC (μg/ml)): 2 µg/mL; MIC (S. gordonii Challis; read-out: MIC): 2.5 µM; MIC (S. gordonii Challis; read-out: MIC (μg/ml)): 1.2 µg/mL; MBC ([1]; read-out: MBC): 20 µM; MBC ([1]; read-out: MBC (μg/ml)): 10.1 µg/mL; MIC ([1]; read-out: MIC): 20 µM; MIC ([1]; read-out: MIC (μg/ml)): 10.1 µg/mL; MBC (E. coli HB101; read-out: MBC): 2.5 µM; MBC (E. coli HB101; read-out: MBC (μg/ml)): 1.3 µg/mL; MIC (E. coli HB101; read-out: MIC): 2.5 µM; MIC (E. coli HB101; read-out: MIC (μg/ml)): 1.3 µg/mL
CC(C)C[C@@H](NC(=O)[C@@H](CS)NC(=O)[C@@H](CCCCN)NC(=O)[C@@H](Cc1ccc(O)cc1)NC(=O)[C@@H](CO)NC(=O)[C@@H](CCCCN)NC(=O)[C@H](N)CCCNC(=N)N)C(=O)N[C@H](Cc1c[nH]cn1)C(=O)N[C@H](CCCCN)C(=O)N[C@H](CCCNC(=N)N)C(=O)N[C@H](CS)C(=O)N[C@H](CCCNC(=N)N)C(=O)O [MUC7 12-mer-D] (H-[dR][dK][dS][dY][dK][dC][dL][dH][dK][dR][dC][dR]-OH; N-terminus and C-terminus assumed) |  |  |  |  | 12.5 µM (≈ 19.7 µg/mL) | 12.5 µM | 100.0 µM (≈ 158 µg/mL) | 50.0 µM (≈ 78.9 µg/mL) | >100 µM | >158 µg/mL | >100 µM | >158 µg/mL | 12.5 µM (≈ 19.7 µg/mL) | 12.5 µM (≈ 19.7 µg/mL) | 6.25 µM | 25 µM |  |  | 
CC(C)C[C@H](NC(=O)[C@H](CS)NC(=O)[C@H](CCCCN)NC(=O)[C@H](Cc1ccc(O)cc1)NC(=O)[C@H](CO)NC(=O)[C@H](CCCCN)NC(=O)[C@@H](N)CCCNC(=N)N)C(=O)N[C@@H](Cc1c[nH]cn1)C(=O)N[C@@H](CCCCN)C(=O)N[C@@H](CCCNC(=N)N)C(=O)N[C@@H](CS)C(=O)N[C@@H](CCCNC(=N)N)C(=O)O [MUC7 12-mer-L] (H-RKSYKCLHKRCR-OH; N-terminus and C-terminus assumed) |  |  |  |  | 12.5 µM (≈ 19.7 µg/mL) | 12.5 µM | 100.0 µM (≈ 158 µg/mL) | 50.0 µM (≈ 78.9 µg/mL) | >100 µM | >158 µg/mL | >100 µM | >158 µg/mL | 25.0 µM (≈ 39.4 µg/mL) | 25.0 µM (≈ 39.4 µg/mL) | 12.5 µM | 50 µM |  |  | 
AKRHHGYKRKFH [Hsn5 12-mer] |  |  |  |  | 50.0 µM | 25 µM | >100 µM | >100 µM | >100 µM | >158 µg/mL | >100 µM | >158 µg/mL | 100.0 µM | 100.0 µM | 25 µM | >50 µM | >158 µg/mL | >158 µg/mL | MBEC50 (μg/ml) ([2]; GS-5 1-day biofilm, 24 h): >78 µg/mL
GIGKFLHSAKKFGKAFVGEIMNS [Magainin-II] | 62 µg/mL | 25 µM | >125 µg/mL | >50 µM | 50.0 µM | 25 µM | >50 µM | 50.0 µM |  |  |  |  | 12.5 µM | 12.5 µM |  |  | >123 µg/mL | 123.5 µg/mL | MIC (S. mutans; median of four strains): 61.7 µg/mL; MBC (μM) [1]: 50.0 µM; MBC (μg/ml) [1]: 123.5 µg/mL; MIC (μM) [1]: 50.0 µM; MIC (μg/ml) [1]: 123.5 µg/mL; MBC (μg/ml) (E. coli HB101): 30.9 µg/mL; MIC (μg/ml) (E. coli HB101): 30.9 µg/mL; eradication of 1-day developed biofilm ([2]; at or more than MBEC50): eradication was not observed
